Legend:
Ba/F3-EGFR-VIII cells = Ba/F3-EGFR-VIII cells (Homo sapiens, UniProt P00533, DELINS30-297G, cells depend on it); assay: Inhibition of cell proliferation, CTG method, Ba/F3-EGFR-VIII; type: cell-based; settings: 72 hours, read-out: Ba/F3 EGFRvIII IC50
From the text: (§1) The present application examined the in vitro anti-proliferative activity of the compounds of the present disclosure against in vitro cultured BT474, NCI-N87, Ba/F3-EGFR-VIII and Ba/F3 HER2 A775_G776insYVMA and Ba/F3 EGFR D770_N771insSVD cell lines by CTG method.
(§2) Reagents and consumables: RPMI1640 (ThermoFisher, Cat. No. C11875500BT); fetal bovine serum (Hyclone, Cat. No. SV30087.03); 0.25% trypsin-EDTA (ThermoFisher, Cat. No. 25200-072); penicillin-streptomycin (Hyclone, Cat. No. SV30010); DMSO (Amresco, Cat. No. 0231-500ML); CTG assay kit (Promega, Cat. No. G924C); 96-well plate (Corning, Cat. No. 3603); multifunctional plate reader (Perkin Elmer, Cat. No. Envision)
(§3) Cell lines: BT474 (from the cell bank of Chinese Academy of Sciences), NCI-N87 (from ATCC), Ba/F3-EGFR-VIII, Ba/F3 HER2 A775_G776insYVMA and Ba/F3 EGFR D770_N771insSVD (all from KYinno Biotechnology (Beijing) Co., Ltd.); all of the above cells were cultured with RPMI1640 medium containing 10% fetal bovine serum, 100 U/mL penicillin, and 100 μg/mL streptomycin in the culture process.
1. […]
(§4) 4. The cells were cultured for another 72 hours, and then cell viability was detected by CTG assay kit. Signal values were read with a multifunctional plate reader (Perkin Elmer). GraphPad Prism software was used to create a dose-response curve and IC50 was calculated.

EGFR^WT kinase = EGFR^WT kinase (Homo sapiens, UniProt P00533); assay: EGFR^WT kinase assay (ULight/PT66 TR-FRET); type: biochemical
How it was run: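 Enzyme preincubated 5 min with compound (11-point 3-fold series, duplicate), then ULight-JAK-1 (Tyr1023) peptide and ATP added at 4× stocks of 400 nM and 600 μM; 120 min reaction at room temperature. PT66 antibody TR-FRET read after 60 min; IC50 fitted from inhibition rates.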

[1] = molecular target: Ba/F3 HER2 A775_G776insYVMA cells (Homo sapiens, UniProt P04626, DUP772-775, cells depend on it); assay: Inhibition of cell proliferation, CTG method, Ba/F3 HER2 A775_G776insYVMA; type: cell-based; settings: 72 hours, read-out: Ba/F3 HER2 A775-G776insYVMA IC50
How it was run: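 Ba/F3 HER2 A775_G776insYVMA cells in RPMI1640 with 10% FBS were plated at 3000 cells/well and treated directly with compound (top 10 μM, 4-fold, 9 concentrations, duplicates).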

HER2 kinase = molecular target: T1, HER2 kinase (Homo sapiens, UniProt P04626); assay: HER2 kinase assay (ULight/PT66 TR-FRET); type: biochemical
T1 construct: purchased Carna Biosciences 08-016
How it was run: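 HER2 kinase preincubated 5 min with compounds (11-point 3-fold series, duplicates), then reacted 120 min at room temperature with ATP and ULight-poly GT peptide, each prepared at 4× working concentration (40 μM ATP, 400 nM substrate, 40 nM kinase). PT66 antibody added for 60 min, TR-FRET read; IC50 from inhibition curves.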

NCI-N87 cells = assay: Inhibition of cell proliferation, CTG method, NCI-N87; type: cell-based; settings: Homo sapiens, 72 hours, read-out: hNCI-N87 IC50
From the text: as §1, §2, §3
(§5) 1. The assay compound was dissolved with DMSO to form a stock solution and a gradient dilution was performed, followed by dilution with the corresponding medium to obtain a solution with 5-fold working concentration.
(§6) 2. Cells in logarithmic growth phase were adjusted to specific cell densities by dilution with culture medium, and 80 μL of cell suspension was added to a 96-well plate, such that plating densities of cells of BT474, NCI-N87, Ba/F3-EGFR-VIII, Ba/F3 HER2 A775_G776insYVMA and Ba/F3 EGFR D770_N771insSVD were all 3000 cells/well. The cells of Ba/F3-EGFR-VIII, Ba/F3 HER2 A775_G776insYVMA and Ba/F3 EGFR D770_N771insSVD were used directly in the next step (treatment with compound), whereas the BT474 and NCI-N87 needed to be cultured overnight in a 37° C., 5% carbon dioxide gas incubator to adhere to the wall, and then treated with compounds.
(§7) 3. 20 μL of compound solution was added to each well of the 96-well plate that had been inoculated with cells. The highest concentration of the assayed compound was 10 μM, 4-fold serial dilution, a total of 9 concentrations, and duplicate wells. A control group without compound was also set up.
as §4

[2] = molecular target: Ba/F3 EGFR D770_N771insSVD cells (Homo sapiens, UniProt P00533, DUP768-770, cells depend on it); assay: Inhibition of cell proliferation, CTG method, Ba/F3 EGFR D770_N771insSVD; type: cell-based; settings: 72 hours, read-out: Ba/F3 EGFR D770_N771insSVD IC50
From the text: as §1, §2, §3, §5, §6, §7, §4

BT474 cells = assay: Inhibition of cell proliferation, CTG method, BT474; type: cell-based; settings: Homo sapiens, BT-474, 72 hours, read-out: hBT474 IC50
From the text: as §1, §2, §3
1. […]
as §4

[3] = system: Ba/F3 ERBB2 A775_G776insYVMA; assay: Efficacy in nude mouse tumor-bearing model of Ba/F3 ERBB2 A775_G776insYVMA; type: in vivo, BALB/c nude mice; settings: 30 mg/kg, QD×15, PO; day 15
Method: In this assay, some compounds of the application were orally administered to a nude mouse tumor-bearing model of Ba/F3 ERBB2 A775_G776insYVMA to study the effect of the compounds of the application on tumor growth.
Preparation of the assay compound: an appropriate weight of the compound to be assayed was weighed, and completely dissolved in an appropriate volume of vehicle (DMSO). The mixture was vortexed or sonicated. Then an appropriate amount of Solutol was added and mixed well. Finally, sterilized drinking water was added and the mixture was mixed by stirring or vortexing to obtain a homogeneous solution or suspension.
Method: All the assays were authorized and agreed by the Animal Welfare Committee. Ba/F3 ERBB2 A775_G776insYVMA in a logarithmic growth period was inoculated subcutaneously into the right back of immunodeficient nude mice (BALB/c nude, female, 6-7 weeks of age, body weight 18±2 g) with 4×10^6 cells/rat. After the tumor grew to 150-200 mm^3, the animals were randomly divided into a treatment group and a control group. For the treatment group, a solution of each assay compound was given, and for the control group, a vehicle solution without the assay compound was given. Both of the treatment group and the control group were administered once a day for about 2 weeks. The dose of each assay article was 30 mg/kg (in terms of effective compound concentration), and the assay compounds were all prepared freshly for use. During the assay, the diameter of loaded tumors was measured twice a week, and the mice were weighed at the same time. The tumor volume (TV) was calculated by the formula: TV=½×a×b^2, where a and b denote length and width, respectively. Relative tumor volume (RTV) was calculated based on the measured results by the formula: RTV=Vt/V0, where V0 is the tumor volume measured at grouping and administration and Vt is the tumor volume at each measurement. The evaluation index of antitumor activity was the relative tumor proliferation rate T/C (%) calculated by the formula: T/C (%)=(TRTV/CRTV)×100%, TRTV: RTV of the administration group; CRTV: RTV of the control group. T and C denote the average tumor volume at a certain time point in the administration group and the control group, respectively.

Sequence of Ba/F3 HER2 A775_G776insYVMA cells (P04626 with tags, fused parts or gaps DUP772-775): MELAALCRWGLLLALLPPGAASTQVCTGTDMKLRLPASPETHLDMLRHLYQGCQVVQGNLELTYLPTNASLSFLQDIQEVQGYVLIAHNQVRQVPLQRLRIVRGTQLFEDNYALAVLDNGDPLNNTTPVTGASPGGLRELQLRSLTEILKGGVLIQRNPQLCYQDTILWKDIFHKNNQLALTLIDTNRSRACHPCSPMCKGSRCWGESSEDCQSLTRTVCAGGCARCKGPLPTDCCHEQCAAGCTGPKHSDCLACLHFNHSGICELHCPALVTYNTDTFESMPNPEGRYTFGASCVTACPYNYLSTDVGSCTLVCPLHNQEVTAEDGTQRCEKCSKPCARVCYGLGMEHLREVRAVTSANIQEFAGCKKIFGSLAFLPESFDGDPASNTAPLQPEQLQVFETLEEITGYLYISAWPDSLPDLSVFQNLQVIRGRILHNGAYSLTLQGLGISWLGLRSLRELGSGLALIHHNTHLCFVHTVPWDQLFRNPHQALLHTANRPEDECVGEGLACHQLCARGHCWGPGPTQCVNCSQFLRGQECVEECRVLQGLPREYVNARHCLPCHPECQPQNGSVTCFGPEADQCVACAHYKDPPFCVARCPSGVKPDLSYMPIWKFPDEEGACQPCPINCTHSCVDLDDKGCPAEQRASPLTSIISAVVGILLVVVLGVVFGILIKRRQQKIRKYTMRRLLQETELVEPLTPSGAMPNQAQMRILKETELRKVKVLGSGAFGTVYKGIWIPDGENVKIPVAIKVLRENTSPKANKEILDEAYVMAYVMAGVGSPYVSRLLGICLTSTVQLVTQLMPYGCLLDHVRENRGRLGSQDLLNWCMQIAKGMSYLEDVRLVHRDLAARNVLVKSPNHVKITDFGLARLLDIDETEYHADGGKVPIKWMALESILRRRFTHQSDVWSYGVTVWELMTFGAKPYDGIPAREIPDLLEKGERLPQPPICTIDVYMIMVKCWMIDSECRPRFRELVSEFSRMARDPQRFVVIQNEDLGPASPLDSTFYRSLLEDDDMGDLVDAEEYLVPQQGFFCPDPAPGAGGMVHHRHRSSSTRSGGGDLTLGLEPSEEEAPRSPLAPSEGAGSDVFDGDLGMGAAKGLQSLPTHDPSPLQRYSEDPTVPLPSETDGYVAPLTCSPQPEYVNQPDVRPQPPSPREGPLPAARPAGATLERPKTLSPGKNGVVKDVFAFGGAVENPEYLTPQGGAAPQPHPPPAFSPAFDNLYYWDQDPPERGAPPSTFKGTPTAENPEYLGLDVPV
Sequence of EGFR^WT kinase (P00533 25-1210): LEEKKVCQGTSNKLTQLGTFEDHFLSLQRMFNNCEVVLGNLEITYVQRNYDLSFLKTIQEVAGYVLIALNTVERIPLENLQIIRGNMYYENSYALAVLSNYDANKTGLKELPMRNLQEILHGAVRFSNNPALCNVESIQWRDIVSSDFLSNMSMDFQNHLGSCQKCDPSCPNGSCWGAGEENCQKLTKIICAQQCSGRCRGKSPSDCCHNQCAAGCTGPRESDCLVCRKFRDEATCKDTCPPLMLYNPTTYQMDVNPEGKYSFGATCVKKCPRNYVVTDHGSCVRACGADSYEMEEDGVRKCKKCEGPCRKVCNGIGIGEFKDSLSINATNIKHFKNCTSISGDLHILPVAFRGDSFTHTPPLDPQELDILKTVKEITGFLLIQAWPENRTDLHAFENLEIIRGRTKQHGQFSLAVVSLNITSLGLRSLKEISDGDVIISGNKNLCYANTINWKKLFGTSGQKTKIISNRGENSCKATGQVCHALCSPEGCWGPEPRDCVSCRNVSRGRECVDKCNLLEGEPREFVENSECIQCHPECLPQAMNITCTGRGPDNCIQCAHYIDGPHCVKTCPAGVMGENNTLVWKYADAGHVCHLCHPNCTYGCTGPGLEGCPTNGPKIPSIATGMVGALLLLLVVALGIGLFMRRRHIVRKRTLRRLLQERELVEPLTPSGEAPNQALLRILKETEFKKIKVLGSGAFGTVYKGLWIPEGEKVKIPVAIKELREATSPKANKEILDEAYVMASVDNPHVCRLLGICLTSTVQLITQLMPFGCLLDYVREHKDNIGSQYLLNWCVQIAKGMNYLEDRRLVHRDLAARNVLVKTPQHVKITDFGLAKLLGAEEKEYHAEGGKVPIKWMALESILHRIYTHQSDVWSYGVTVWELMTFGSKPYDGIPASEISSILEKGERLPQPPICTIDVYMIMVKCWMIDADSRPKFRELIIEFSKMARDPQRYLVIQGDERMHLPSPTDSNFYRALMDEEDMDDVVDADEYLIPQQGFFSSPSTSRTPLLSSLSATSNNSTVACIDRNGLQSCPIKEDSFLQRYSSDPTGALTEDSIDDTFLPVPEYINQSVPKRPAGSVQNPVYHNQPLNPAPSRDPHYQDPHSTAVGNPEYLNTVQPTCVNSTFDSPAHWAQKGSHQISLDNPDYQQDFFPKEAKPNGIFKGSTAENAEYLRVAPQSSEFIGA
Sequence of Ba/F3 EGFR D770_N771insSVD cells (P00533 with tags, fused parts or gaps DUP768-770): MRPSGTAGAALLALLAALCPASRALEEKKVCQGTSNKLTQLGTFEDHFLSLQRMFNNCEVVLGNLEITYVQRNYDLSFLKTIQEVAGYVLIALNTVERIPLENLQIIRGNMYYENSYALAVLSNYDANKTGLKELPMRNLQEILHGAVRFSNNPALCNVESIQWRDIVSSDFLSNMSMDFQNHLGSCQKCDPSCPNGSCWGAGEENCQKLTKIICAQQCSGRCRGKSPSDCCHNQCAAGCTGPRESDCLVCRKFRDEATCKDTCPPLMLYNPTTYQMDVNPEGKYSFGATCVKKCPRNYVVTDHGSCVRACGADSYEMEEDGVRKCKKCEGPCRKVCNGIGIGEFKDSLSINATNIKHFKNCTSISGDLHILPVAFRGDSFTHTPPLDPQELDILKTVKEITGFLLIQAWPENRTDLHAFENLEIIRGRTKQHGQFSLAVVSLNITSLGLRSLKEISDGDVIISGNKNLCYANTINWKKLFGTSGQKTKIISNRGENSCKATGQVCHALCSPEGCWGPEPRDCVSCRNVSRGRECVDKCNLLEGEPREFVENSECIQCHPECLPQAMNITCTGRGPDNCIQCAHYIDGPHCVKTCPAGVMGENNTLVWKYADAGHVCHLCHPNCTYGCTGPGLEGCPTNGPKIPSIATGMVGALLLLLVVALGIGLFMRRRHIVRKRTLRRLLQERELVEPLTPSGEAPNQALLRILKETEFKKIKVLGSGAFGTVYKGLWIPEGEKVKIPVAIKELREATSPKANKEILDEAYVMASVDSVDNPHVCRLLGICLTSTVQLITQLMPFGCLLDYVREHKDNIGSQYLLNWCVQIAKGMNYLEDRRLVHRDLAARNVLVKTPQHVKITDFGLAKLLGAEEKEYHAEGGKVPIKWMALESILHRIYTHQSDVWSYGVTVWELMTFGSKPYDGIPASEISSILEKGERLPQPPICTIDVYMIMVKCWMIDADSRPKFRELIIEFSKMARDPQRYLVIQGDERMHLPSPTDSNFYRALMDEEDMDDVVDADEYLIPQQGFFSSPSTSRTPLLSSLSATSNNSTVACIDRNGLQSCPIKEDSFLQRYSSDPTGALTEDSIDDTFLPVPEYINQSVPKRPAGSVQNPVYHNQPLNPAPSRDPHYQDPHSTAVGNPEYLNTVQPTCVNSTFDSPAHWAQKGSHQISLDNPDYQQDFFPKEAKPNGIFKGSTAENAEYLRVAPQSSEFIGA
T1 sequence (P04626 23-1255): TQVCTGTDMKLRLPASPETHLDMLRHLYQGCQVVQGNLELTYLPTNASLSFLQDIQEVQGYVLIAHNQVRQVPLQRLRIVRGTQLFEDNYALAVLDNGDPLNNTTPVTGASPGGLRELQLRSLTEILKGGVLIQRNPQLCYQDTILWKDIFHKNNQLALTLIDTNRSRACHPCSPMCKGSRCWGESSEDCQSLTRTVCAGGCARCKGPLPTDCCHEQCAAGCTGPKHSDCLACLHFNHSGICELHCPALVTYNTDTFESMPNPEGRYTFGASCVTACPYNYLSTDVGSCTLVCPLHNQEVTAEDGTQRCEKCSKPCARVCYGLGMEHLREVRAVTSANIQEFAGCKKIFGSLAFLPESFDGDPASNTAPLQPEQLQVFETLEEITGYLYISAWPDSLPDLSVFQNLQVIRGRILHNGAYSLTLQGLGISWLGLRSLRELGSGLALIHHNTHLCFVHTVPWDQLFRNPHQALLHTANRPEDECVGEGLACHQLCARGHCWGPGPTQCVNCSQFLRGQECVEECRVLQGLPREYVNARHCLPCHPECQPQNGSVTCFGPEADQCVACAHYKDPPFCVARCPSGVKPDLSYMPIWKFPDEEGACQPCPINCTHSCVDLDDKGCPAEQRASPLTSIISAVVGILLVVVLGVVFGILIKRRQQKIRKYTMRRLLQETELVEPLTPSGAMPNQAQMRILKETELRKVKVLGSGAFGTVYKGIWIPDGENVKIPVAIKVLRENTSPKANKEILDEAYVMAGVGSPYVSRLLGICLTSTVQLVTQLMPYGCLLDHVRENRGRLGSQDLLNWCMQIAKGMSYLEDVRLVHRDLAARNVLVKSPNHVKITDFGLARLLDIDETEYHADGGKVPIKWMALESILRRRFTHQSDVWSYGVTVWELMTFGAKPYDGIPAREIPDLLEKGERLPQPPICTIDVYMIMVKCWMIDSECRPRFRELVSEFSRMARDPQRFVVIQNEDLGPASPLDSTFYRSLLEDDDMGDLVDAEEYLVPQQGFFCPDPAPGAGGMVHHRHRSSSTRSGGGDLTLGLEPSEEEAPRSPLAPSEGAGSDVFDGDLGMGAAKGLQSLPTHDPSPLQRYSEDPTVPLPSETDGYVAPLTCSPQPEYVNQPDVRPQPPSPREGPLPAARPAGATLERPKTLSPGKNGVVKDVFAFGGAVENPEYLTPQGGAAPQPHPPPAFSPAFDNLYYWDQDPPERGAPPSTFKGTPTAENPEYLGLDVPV

| GI50 (Ba/F3-EGFR-VIII cells) | IC50 (EGFR^WT kinase) | GI50 [1] | IC50 (HER2 kinase) | GI50 [2] | IC50 (BT474 cells) | SMILES | IC50 (NCI-N87 cells) | T/C (%) [3] |
| --- | --- | --- | --- | --- | --- | --- | --- | --- |
| 1 to 5 nM | < 10 nM | 1 to 5 nM | < 10 nM | – | – | COc1c(NC(=O)/C=C/CN(C)C)ccc2ncnc(Nc3ccc(OCc4ccccn4)c(Cl)c3)c12 [Example 1, (E)-N-(4-((3-chloro-4-(pyridin-2-ylmethoxy)phenyl)amino)-5-methoxyquinazolin-6-yl)-4-(dimethylamino)but-2-enamide] | 1 to 5 nM | – |
| – | < 10 nM | 1 to 5 nM | < 10 nM | 10 to 100 nM | – | COc1c(NC(=O)/C=C/CN(C)C)ccc2ncnc(Nc3ccc(OCc4cccc(F)c4)c(Cl)c3)c12 [Example 2, (E)-N-(4-((3-chloro-4-(3-fluorobenzyloxy)phenyl)amino)-5-methoxyquinazolin-6-yl)-4-(dimethylamino)but-2-enamide] | 1 to 5 nM | – |
| – | 10 to 100 nM | < 1 nM | < 10 nM | – | 10 to 100 nM | CCOc1c(NC(=O)/C=C/[C@H]2CCCN2C)ccc2ncnc(Nc3ccc(OCc4ccccn4)c(Cl)c3)c12 [Example 5, (R,E)-N-(4-((3-chloro-4-(pyridin-2-ylmethoxy)phenyl)amino)-5-ethoxyquinazolin-6-yl)-3-(1-methylpyrrolidin-2-yl)acrylamide] | 1 to 5 nM | – |
| – | < 10 nM | 1 to 5 nM | < 10 nM | 10 to 100 nM | – | COCCOc1c(NC(=O)/C=C/[C@H]2CCCN2C)ccc2ncnc(Nc3ccc(OCc4ccccn4)c(Cl)c3)c12 [Example 8, (R,E)-N-(4-((3-chloro-4-(pyridin-2-ylmethoxy)phenyl)amino)-5-(2-methoxyethoxy)quinazolin-6-yl)-3-(1-methylpyrrolidin-2-yl)acrylamide] | – | 5.83% |
| – | < 10 nM | 1 to 5 nM | < 10 nM | 10 to 100 nM | – | CCN1CCC[C@@H]1/C=C/C(=O)Nc1ccc2ncnc(Nc3ccc(OCc4cccc(F)c4)c(Cl)c3)c2c1OC [Example 28, (R,E)-N-(4-((3-chloro-4-(3-fluorobenzyloxy)phenyl)amino)-5-methoxyquinazolin-6-yl)-3-(1-ethylpyrrolidin-2-yl)acrylamide] | – | – |

Reference: US20240246934A1, “QUINAZOLINE-BASED COMPOUND, COMPOSITION, AND APPLICATION OF QUINAZOLINE-BASED COMPOUND” (BEIJING SCITECH-MQ PHARMACEUTICALS LIMITED, priority 2021, published 2024)
